Data: US20070082858A1, “Methods and compositions for the prevention of toxic side effects of aminoglycoside medications” (priority 2004, published 2007)

How the values were obtained:
OK cells = assay: GTTR uptake, saturability, time and temperature in OK cells; type: cell-based, opossum
Method: (§1) Both OK and MDCK cells were used in these studies. Both cell lines were treated with GTTR at 1 μg/ml in complete culture medium for two hours at either 37° C. or over ice. These cells were also treated with a dose range of 0 to 4000 μg/ml of unlabeled GT. Cells were washed and imaged live, then fixed with FATX, and washed again with buffer prior to re-imaging (as in FIG. 6, A3). […] Thus, cytoplasmic, but not endosomal, uptake of GTTR was saturable.
(§2) GTTR treatment: Subconfluent MDCK or OK cells were treated with 1 μg/mL of GTTR, in complete medium, for 2 hours at 37° C. or on ice. (The amount of GTTR is expressed as the weight of the gentamicin moiety within the conjugate.) In competition experiments, MDCK cells were simultaneously treated with unlabeled gentamicin (up to 4 mg/mL) for 2 hours.
(§3) Fixation, delipidation, and washing: After treatment, cells were washed three times with complete medium, and then immediately imaged live (see below; FIG. 27A), or fixed. […] Alternatively, cells were fixed in 4% formaldehyde alone (FA), washed and imaged (FIG. 27C), prior to delipidated with 0.5% Triton X-100 in PBS, washed thoroughly, and imaged again (FIG. 27D). Control cells were incubated with hydrolyzed TR (at the same concentration as the TR moiety in the GTTR experiments) and then imaged live, or fixed, delipidated, washed and then imaged.
Both OK and MDCK cells were treated with GTTR at 1 μg/mL in complete culture medium for 2 hours at either 37° C. or over ice. These cells were also treated with a dose range of 0 to 4000 μg/mL of unlabeled GT. Cells were washed and imaged live (as in FIG. 27A), then fixed with FATX, and washed again with PBS prior to re-imaging (as in FIG. 27B). […]
OK cells were treated with 1 μg/mL of GTTR in complete culture medium, at 37° C. or on ice, for increasing time periods. […] (Note that live images were acquired without washing out GTTR from the extracellular medium, so fluorescence is visible outside the cells.) No endosomes were observed on OK cells treated on ice for 2 hours (FIG. 28, B1 inset). […]

[1] = test system: bullfrog saccular explants; assay: GTTR labeling of bullfrog saccular explants in vitro (specificity, Example 6); type: cell-based, Rana catesbeiana; conditions: 300 μg/ml GTTR plus 40-fold excess unconjugated GT (12 mg/ml), 30 minutes
Method: Gentamicin sulfate (Sigma; 50 mg/ml in K2CO3, pH 9) and succinimidyl esters of Texas Red (Molecular Probes; 2 mg/ml in dimethyl formamide) were agitated together overnight to produce a gentamicin-Texas red conjugate (GTTR). Typically, 4.4 ml of 50 mg/ml (final volume) gentamicin sulfate (GT) was mixed with 0.6 ml of 2 mg/ml Texas Red esters (TR) to produce an approximately 300:1 molar ratio of GT:GTTR. A high ratio of free gentamicin to TR esters ensures a minimum of unbound TR molecules, and a binding ratio of 1 TR molecule to 1 GT molecule (Sandoval et al. 1998). Gentamicin sulfate has three isoforms with molecular weights of […], (C2) 463.5, and (C1a) 477.6. Texas Red succinimidyl esters have a molecular weight of 817. […]
For confocal microscopy, excised saccular explants were individually pre-loaded (for 40 minutes) with 50 μM MitoTracker, 50 nM Lysotracker Green, 1 μM NBD-ceramide and 1 μM ERtracker (Molecular Probes) in Wolfe-Quimby amphibian culture media to label lysosomes, Golgi bodies and endoplasmic reticulum, respectively, prior to incubation with 300 μg/ml GT/GTTR for 2 hours. […] For immunocytochemistry of gentamicin, explants were incubated with 300 μg/ml unconjugated gentamicin for 30 minutes or 2 hours, fixed, ice-cold acetone-permeabilized, and processed for indirect fluorescence immunocytochemistry. […]

MDCK kidney cell line = assay: Fluorescent microplate assay quantifying GTTR uptake; type: cell-based, canine; conditions: 37° C. for two hours or room temperature for ten minutes
Excerpt: A fluorescent microplate assay was developed using the MDCK kidney cell line to quantify the modulation of GTTR uptake by agonists/antagonists of the TRVP1 channel (pH, Ca^2+, RTX, and iodo-RTX).

MDCK cells [2] = assay: GTTR uptake, distribution and saturability in MDCK cells (2 hours); type: cell-based, canine
Method: MDCK cells were treated with 1 μg/ml purified GTTR for […] in complete medium at 37° C., then washed 3× with complete medium.
as §1, §2
as §3, with “Control cells were incubated with hydrolyzed TR (at the same concentration as the TR moiety in the GTTR experiments) and then imaged live, or fixed, delipidated, washed and then imaged.” left out

MDCK cells [3] = assay: GTTR uptake into MDCK cells under TRPV1 agonists/antagonists, cation channel blockers, cations and pH (30-60 seconds, 20° C., FATX fixation, confocal imaging); conditions: 0.5 or 5 mM La^+++ in HBSS pH 7.3, 30 seconds
Excerpt: MDCK cells were used as a model system to test regulation of GTTR uptake by conditions known to produce or modify a cation current through the TRPV1 channel. Conditions tested were varying extracellular calcium concentrations, pH, specific agonists, specific antagonists, and the non-specific cation channel blocker Ruthenium Red. In addition, we pre-mixed PIP2 with GTTR to determine whether that anionic phospholipid, known to bind gentamicin, would alter GTTR uptake. All these assays were done at room temperature (20° C.), for 30 or 60 seconds, and using doses of GTTR of 5 to 10 μg/ml, which are far below the typical therapeutic level of <300 μg/ml. Buffers used for treatment were as described for each experiment. Cells were quickly washed to replace culture medium with treatment buffer, treated as indicated, washed again after treatment, fixed immediately with 4% formaldehyde and 0.5% Triton X-100 (FATX), and washed prior to imaging.
Methods: Cells were seeded into 8-well coverglass chambers at 3000 cells/well and grown for 5 days.
Cells were washed three times with the buffer to be used in the particular experiment, treated with GTTR and experimental variable for 30 or 60 seconds at 20° C., precluding endocytosis. Following treatment, cells were rinsed three times with buffer, then fixed and delipidated with 4% formaldehyde plus 0.5% Triton X-100 (FATX) for 45 minutes. Following fixation, cells were rinsed with PBS (Invitrogen, CA) for at least 4-6 times, or until foaming in the suction pipette ceased. In contrast to previous experiments, no FBS was present in the treatment media, allowing for more rapid uptake of the antibiotic-based GTTR.
MDCK cells were washed with Hank's buffered salt solution (HBSS; Invitrogen, CA), then placed into buffers of varying potassium concentrations. HBSS was mixed with equi-osmolar KCl/HBSS to produce the required K^+ concentrations. Cells were treated with 1 μg/mL GTTR for 1 minute, then washed and fixed as described above.
Cells were washed with PBS (Invitrogen, CA), then placed into buffers containing varying concentrations of calcium, obtained by mixing HBSS with equimolar CaCl2, each at pH 7.3. Cells were treated with 5 μg/mL of GTTR for 30 seconds, then washed and fixed as above.
Cells were washed with saline, then treated with 5 μg/mL of GTTR in saline buffers of varying pH for 30 seconds, then washed and fixed as above. Sodium hydroxide and hydrochloric acid were used to alter pH. These experiments were performed in three different saline buffers: (i) PBS (no calcium), (ii) a mixture of […] for a final calcium concentration of 0.32 mM, and (iii) a mixture of three parts PBS to one part HBSS for a final calcium concentration of 0.97 mM.
Cells were washed three times with Ca^++-free saline (0.9% NaCl), then treated with 5 μg/mL GTTR and one of the following for 30 seconds: TRPV1 agonists (resiniferatoxin [RTX]; or anandamide [AND]; Alexis Biochemicals, San Diego, Calif.); or antagonists (iodo-RTX, or SB 366791; Tocris, Ellisville, Mo.). Cells were then washed in saline and fixed as above.
Cells were washed three times with Ca^++-free 0.9% NaCl, then treated with 5 μg/mL GTTR and one of the following for 30 seconds: 100 μM Ruthenium Red, 100 μM Ruthenium Red plus one of the TRPV1 agonists or antagonists described above; or lanthanum (La^+++) at 0.5 or 5 mM.

MDCK cells [4] = assay: Gentamicin immunolabeling of MDCK cells incubated with unlabeled gentamicin and La^+++; type: cell-based, canine; conditions: 0.05, 0.5 and 5 mM La^+++, unlabeled gentamicin 30 seconds
Method: […] Cells were rinsed twice with PBS, fixed with 4% FA, then permeabilized with ice-cold methanol for 5 minutes, and rinsed 3 times with PBS, as described previously (Steyger et al., 2003). Cells were immunoblocked in 10% goat serum in PBS for 30 minutes, and then incubated with 50 μg/mL rabbit anti-gentamicin IgG (American Quaalex, San Clemente, Calif.) for 1 hour. After washing with 1% goat serum in PBS, cells were further incubated with 20 μg/mL Alexa-488-conjugated goat-anti-rabbit IgG antisera (Molecular Probes, Eugene, Oreg.) for 45 minutes, washed, post-fixed with 4% FA for 15 minutes, and washed again. For immunocytochemical controls, the primary IgG were omitted, or adsorbed with excess gentamicin (3 mg/mL) for 30 minutes prior to addition to cells. All wells were imaged using confocal microscopy.

| Compound | cytoplasmic and nuclear GTTR (OK cells; OK cells, 1 μg/ml GTTR 2 hours, 37° C. or ice, unlabeled GT 0 to 4000 μg/ml) | cell morphology (OK cells; OK cells, 4 mg/mL gentamicin, 2 hours) | endosomal (vesicular) accumulation of GTTR (OK cells; live cells at 37° C., highest dose of unlabeled GT (4 mg/ml)) | GTTR fluorescence in saccular explants [1] | GTTR uptake (quantitative microplate fluorescence) (MDCK kidney cell line) | cytoplasmic and nuclear GTTR (MDCK cells [2]; 1 μg/ml GTTR 2 hours, 37° C. or ice, unlabeled GT 0 to 4000 μg/ml) | cell morphology (MDCK cells [2]; 4 mg/mL gentamicin, 2 hours) | GTTR uptake (MDCK cells [3]) | intensity of gentamicin immunofluorescence (unconjugated gentamicin uptake) (MDCK cells [4]) |
| --- | --- | --- | --- | --- | --- | --- | --- | --- | --- |
| gentamicin [unlabeled GT] | serially reduced the amount of GTTR | flattening of cells | not visibly altered | reduced fluorescence in the sensory epithelium | reduced GTTR uptake | serially reduced the amount of GTTR | flattening of cells | – | – |
| [La+3] [La^+++, Lanthanum] | – | – | – | – | – | – | – | serially decreased | serially decreased |
